Laboratory results from ChEMBL document CHEMBL1149723, “Structures of four new triterpenoid oligoglycosides: DS-penaustrosides A, B, C, and D from the sea cucumber Pentacta australis” (J Nat Prod, 1992).
≈ marks a conversion by molar mass, not a printed value.

What was measured:
KB = assay: Cytotoxicity against human KB cells; format: functional, cell-based
L1210 = assay: Cytotoxicity against mouse L1210 cells; format: functional, cell-based

**Q.** How did the IC50 (KB) turn out when C=C(C)CCC[C@](C)(O)[C@H]1CC[C@@]2(C)[C@@H]3CC[C@H]4C(C)(C)[C@@H](O[C@@H]5OC[C@@H](O)[C@H](O)[C@H]5O[C@@H]5O[C@H](C)[C@@H](O[C@@H]6O[C@H](CO)[C@@H](O)[C@H](O[C@@H]7O[C@H](CO)[C@@H](O)[C@H](OC)[C@H]7O)[C@H]6O)[C@H](O)[C@H]5O[C@@H]5OC[C@@H](O)[C@H](O)[C@H]5O)CC[C@]4(C)C3=CC[C@]12C [DS-PENAUSTROSIDE B] was run?
**A.** The IC50 was 4.6 µg/mL (≈ 3.86 µM).

**Q.** And the IC50 (L1210)?
**A.** The IC50 was 2.1 µg/mL (≈ 1.76 µM).

**Q.** Which IC50 (KB) does the source give for CO[C@@H]1[C@@H](O)[C@H](O[C@@H]2[C@@H](O)[C@H](O[C@H]3[C@H](O)[C@@H](O[C@@H]4OC[C@@H](O)[C@H](O)[C@H]4O)[C@H](O[C@H]4[C@H](O[C@H]5CC[C@]6(C)C7=CC[C@]8(C)[C@@H]([C@@](C)(O)CCCC(C)C)CC[C@@]8(C)[C@@H]7CC[C@H]6C5(C)C)OC[C@@H](O)[C@@H]4O)O[C@@H]3C)O[C@H](CO)[C@H]2O)O[C@H](CO)[C@H]1O [DS-PENAUSTROSIDE A] here?
**A.** Its IC50 is 0.62 µg/mL (≈ 0.52 µM).

**Q.** And the IC50 (L1210)?
**A.** Its IC50 is 0.12 µg/mL (≈ 0.101 µM).
